Data on one compound can be found in US20060287251A1, “Combination therapy for glycaemic control” (priority 2003, published 2006).

For this test, the system named is diabetic Zucker (fa/fa) rats. Description: Glutaminyl thiazolidine and Metformin alone or in combination, glycemic control in diabetic Zucker (fa/fa) rats. It counts as in vivo, rat. Conditions: b.i.d. oral; for reactive and absolute G-AUC: p<0.05 vs. Control; for glucose tolerance curve in the OGTT: vs. Control. As for the experimental part: Ten or eleven weeks old male Zucker (fa/fa) rats were purchased from Charles River (Sulzfeld, Germany). Animals were kept under standardized semi-barrier conditions with controlled temperature (22±2° C.) on a 12/12 hours light/dark cycle (light on at 06:00 a.m.). Standard pelleted chow (ssniff®, Soest, Germany) and tap water acidified with HCl were allowed ad libitum. At the age of 12 weeks the animals (N=42) were divided in random order into six experimental groups to be medicated. Definition of the Experimental Groups for the Medications (GT=glutaminyl thiazolidine):
The single or combined doses per kg b.w. were solved in 5 mL dist. water for oral administration.
The study was started with the 12 to 13 weeks old Zucker (fa/fa) rats. At the beginning of the study an OGTT was performed (2 g glucose/kg body weight (b.w.); administration volume: 5 mL/kg of a 40% solution; B. Braun Melsungen, Melsungen, Germany) after a 16 h fast. […] Dosing was performed at t=5 min before OGTT by gavage.
Blood samples were taken from tail veins to measure blood glucose and serum insulin at −15, ±0 min, 15, 30, 60, 90, 120 and 180 min (the latter time without insulin samples) with respect to time of glucose administration.
After the first OGTT the animals in the groups were dosed twice daily with the respective drugs at 08:00 AM and at 04:00 PM, respectively:
During the two weeks of medication morning blood glucose was measured before the 08:00 AM medication at Monday, Wednesday and Friday.
Food intake was determined every day during the time of medication.
All the animals were weighted three times per week at 7:30 AM.
A second OGTT was performed after two weeks of medication (Day 15). The food was withdrawn at 04:00 PM the day before (16 h fast). The OGTT was performed with pre-medication at −5 min and oral glucose loading at ±0 min. Blood samples were taken from tail veins to measure blood glucose, and serum insuline at −15, ±0 min, 15, 30, 60, 90, 120 and 180 min (the latter time without insulin samples).
Glycated hemoglobin was measured before (Day −7) and on Day 18.
Glucose-For determination of glucose 20 μL blood were collected at −15, ±0 min (before OGTT) and 15, 30, 60, 90, 120 and 180 min post OGTT.
Insulin-Insulin concentrations were assayed by the antibody RIA method (Linco Research, Inc. St. Charles, Mo., USA).
Glycated haemoglobin-Percentage of glycated hemoglobin A (HbA1c) was estimated with the “DCA 2000R Hämoglobin A1c-Reagenz kit”(Bayer Vital GmbH, Fernwald, Germany).
The body weight was measured using a platform balance (Scaltec, Heiligenstadt, Germany).
Mixed venous blood samples from the tails were collected into 20 μL glass capillaries, which were placed in standard tubes filled with 1 ml solution for hemolysis (blood glucose measurement) and in sample tubes for serum insulin (50 μL blood).
Raw data of glucose analysis were provided by IDK to probiodrug in Excel format as soon as possible. Data for each drug and each parameter (glucose, insulin) were summarized by descriptive statistics (mean, SEM). […] Changes from baseline were calculated and summarized by descriptive statistic.

The mark [1] stands for this setting: GT 60 mg/kg b.w. and/or Metformin 125 mg/kg b.w. (Met-low).
Setting [2] is: Metformin 300 mg/kg b.w. (Met-high) with or without GT 60 mg/kg b.w.

Take `CN(C)C(=N)N=C(N)N` [Metformin, 1,1-Dimethylbiguanidine]: under setting [1], the “reactive and absolute G-AUC” value is “significantly reduced”; the “glucose tolerance curve in the OGTT” value is “significantly improved glucose tolerance curves”. Moreover, under setting [2], the “reactive and absolute G-AUC” value is reported as “once more lowered”; the “glucose tolerance curve in the OGTT” value is on record as “further improvement of glucose tolerance curve”.
